Assay results taken from patent US20140323577A1, “METHODS FOR REDUCING THE RISK OF CONVERSION TO CLINICALLY DEFINITE MULTIPLE SCLEROSIS” (Sanofi-Aventis U.S. LLC, priority 2013, published 2014).

Key:
Type in all cases: in vivo, human
[1] = test system: patients with a first clinical episode suggestive of multiple sclerosis; experiment: Time to conversion to CDMS, randomized double-blind placebo-controlled study; conditions: for Hazard ratio (95% CI), time to conversion to CDMS: Cox proportional hazard model; for Number of patients who were censored (time to conversion to CDMS) / Number of patients with conversion to CDMS: number (%); for Kaplan-Meier estimates of probability of conversion to CDMS (95% CI): ITT
Text: (§1) Methodology: This was a multi-center, multinational, randomized, placebo-controlled, double blind, parallel group (3 groups) study stratified by center and baseline monofocal/multifocal status.
(§2) Diagnosis and criteria for inclusion: Patients with a first acute or subacute, well-defined neurological event consistent with demyelination with onset of MS symptoms occurring within 90 days of randomization; and abnormal MRI with 2 or more T2 lesions at least 3 mm in diameter that are characteristic of MS.
Efficacy/pharmacodynamics: The primary efficacy variable was time to CDMS defined by the occurrence of a relapse: new neurological abnormality separated by at least 30 days from onset of a preceding clinical event, present for at least 24 hours and occurring in the absence of fever or known infection.
(§3) Statistical methods: Analysis population: Efficacy analyses were based on the intent-to-treat (ITT) population consisting of all randomized patients, as randomized, who had at least 1 day exposure to study medication.
Efficacy analysis: The primary analysis of time to conversion to CDMS was performed using Cox regression model with treatment, region, and baseline monofocal/multifocal status as independent variables. The assessment of efficacy was based on (pairwise) hazard rate ratio comparisons of each active dose of teriflunomide versus placebo. Two-sided 95% confidence intervals of the hazard rates ratio were provided for each teriflunomide treatment effect estimate versus placebo. The log-rank test was provided as supportive.
(§4) Multiplicity procedure: Step down approach was used for multiplicity adjustment for 2 doses of teriflunomide and the primary and key secondary endpoints. Treatment comparison of teriflunomide 14 mg vs. placebo in time to conversion to CDMS was tested at 5% significance level. If significant, comparison of teriflunomide 7 mg vs. placebo in time to conversion to CDMS was tested at 5% significance level. If significant, comparison of teriflunomide 14 mg vs. placebo for the key secondary endpoint was tested at 5% significance level. If significant, comparison of teriflunomide 7 mg vs. placebo for the key secondary endpoint was tested at 5% significance level.

[2] = test system: patients with a first clinical episode suggestive of multiple sclerosis; experiment: Time to conversion to DMS (dissemination of MRI lesions in time or a relapse), same study; conditions: for Hazard ratio (95% CI), time to conversion to DMS: Cox proportional hazard model; for Number of patients with conversion to DMS / Number of patients who were censored (time to conversion to DMS) / Number of patients with conversion to DMS: Dissemination of MRI lesion in time / Number of patients with conversion to DMS: Relapse: number (%); for Number of patients who were censored (time to conversion to DMS) / Number of patients with conversion to DMS: Dissemination of MRI lesion in time / Number of patients with conversion to DMS: Relapse / Kaplan-Meier estimates of probability of conversion to DMS (95% CI): ITT
Text: as §1, §2, §3
(§5) The key secondary endpoint was analyzed using the same Cox regression model. ARR was analyzed using a Poisson regression model with robust error variance including the number of confirmed relapses with their onset between randomization date and last dose date as the response variable, treatment, region, and baseline monofocal/multifocal status as covariates, and log transformed standardized exposure duration as an offset variable.
as §4

[3] = test system: patients with a first clinical episode suggestive of multiple sclerosis; experiment: Confirmed MS relapse / annualized relapse rate (ARR), same study; conditions: for Unadjusted annualized relapses rate / Total number of relapses / Number of patients with ≧1 relapses: No / Number of relapses: 0 (patients) / Number of relapses: 1 (patients) / Number of relapses: 2 (patients) / Number of relapses: >=3 (patients): ITT; for Number of patients with ≧1 relapses: Yes / Number of patients with ≧1 relapses: No / Number of relapses: 0 (patients) / Number of relapses: 1 (patients) / Number of relapses: 2 (patients) / Number of relapses: >=3 (patients): number (%); for Risk reduction of on-treatment adjusted ARR relative to placebo: non-statistically significant
Text: as §1, §2, §3, §5

[4] = test system: patients with a first clinical episode suggestive of multiple sclerosis; experiment: Study treatment discontinuation and tolerability, same study
Protocol: as §1
454 (73.9%) patients completed 108 weeks of study treatment or entered the extension: 71.6% in the placebo group, 73.2% in the teriflunomide 7 mg group, and 75.5% in the teriflunomide 14 mg group. […] The mean (±SD) age was 32.1 (±8.5) years and the study population was primarily Caucasian (96.1%).

[5] = 14 mg once daily, ITT (N = 214)
[6] = 7 mg once daily, randomized population (N = 205)
[7] = 14 mg once daily, randomized population (N = 216)

C/C(O)=C(\C#N)C(=O)Nc1ccc(C(F)(F)F)cc1 [teriflunomide, (Z)-2-cyano-3-hydroxy-but-2-enoic acid-(4′-trifluoromethylphenyl)-amide]
Hazard ratio (95% CI), time to conversion to CDMS ([1]; 7 mg once daily vs placebo, P-value 0.0271, log-rank P 0.0422): 0.628 | Number of patients who were censored (time to conversion to CDMS) ([1]; 7 mg once daily, ITT (N = 203)): 164 (80.8%) | Number of patients with conversion to CDMS ([1]; 7 mg once daily, ITT population (N = 203)): 39 (19.2%) | Kaplan-Meier estimates of probability of conversion to CDMS (95% CI) ([1]; 7 mg once daily, at 24 weeks): 0.087 | Kaplan-Meier estimates of probability of conversion to CDMS (95% CI) ([1]; 7 mg once daily, at 48 weeks): 0.142 | Estimated cumulative rate of conversion to CDMS ([1]; 7 mg once daily, at 108 weeks): 27.6% | Kaplan-Meier estimates of probability of conversion to CDMS (95% CI) ([1]; 7 mg once daily, at 108 weeks): 0.276 | Reduction of the risk of conversion to CDMS compared to placebo ([1]; 7 mg once daily, p=0.0271): 37.2% | Hazard ratio (95% CI), time to conversion to CDMS ([1]; 14 mg once daily vs placebo, P-value 0.0087, log-rank P 0.0133): 0.574 | Number of patients who were censored (time to conversion to CDMS) [1, 5]: 176 (82.2%) | Number of patients with conversion to CDMS ([1]; 14 mg once daily, ITT population (N = 214)): 38 (17.8%) | Kaplan-Meier estimates of probability of conversion to CDMS (95% CI) ([1]; 14 mg once daily, at 24 weeks): 0.090 | Kaplan-Meier estimates of probability of conversion to CDMS (95% CI) ([1]; 14 mg once daily, at 48 weeks): 0.137 | Estimated cumulative rate of conversion to CDMS ([1]; 14 mg once daily, at 108 weeks): 24.0% | Kaplan-Meier estimates of probability of conversion to CDMS (95% CI) ([1]; 14 mg once daily, at 108 weeks): 0.240 | Reduction of the risk of conversion to CDMS compared to placebo ([1]; 14 mg once daily, p=0.0087): 42.6% | Hazard ratio (95% CI), time to conversion to DMS ([2]; 7 mg once daily vs placebo, P-value 0.0020, log-rank P 0.0028): 0.686 | Number of patients with conversion to DMS ([2]; 7 mg once daily, ITT (N = 203)): 125 (61.6%) | Number of patients who were censored (time to conversion to DMS) ([2]; 7 mg once daily): 78 (38.4%) | Number of patients with conversion to DMS: Dissemination of MRI lesion in time ([2]; 7 mg once daily): 110 (54.2%) | Number of patients with conversion to DMS: Relapse ([2]; 7 mg once daily): 15 (7.4%) | Kaplan-Meier estimates of probability of conversion to DMS (95% CI) ([2]; 7 mg once daily, at 24 weeks): 0.457 | Kaplan-Meier estimates of probability of conversion to DMS (95% CI) ([2]; 7 mg once daily, at 48 weeks): 0.573 | Estimated cumulative rate of conversion to DMS (dissemination of MRI lesions in time or confirmed relapse) ([2]; 7 mg once daily, at 108 weeks): 73.3% | Kaplan-Meier estimates of probability of conversion to DMS (95% CI) ([2]; 7 mg once daily, at 108 weeks): 0.733 | Reduction of the risk of conversion to DMS (dissemination of MRI lesions in time or a relapse) compared to placebo ([2]; 7 mg once daily, p=0.0020): 31.4% | Hazard ratio (95% CI), time to conversion to DMS ([2]; 14 mg once daily vs placebo, P-value 0.0003, log-rank P 0.0002): 0.651 | Number of patients with conversion to DMS [2, 5]: 136 (63.6%) | Number of patients who were censored (time to conversion to DMS) ([2]; 14 mg once daily): 78 (36.4%) | Number of patients with conversion to DMS: Dissemination of MRI lesion in time ([2]; 14 mg once daily): 111 (51.9%) | Number of patients with conversion to DMS: Relapse ([2]; 14 mg once daily): 25 (11.7%) | Kaplan-Meier estimates of probability of conversion to DMS (95% CI) ([2]; 14 mg once daily, at 24 weeks): 0.460 | Kaplan-Meier estimates of probability of conversion to DMS (95% CI) ([2]; 14 mg once daily, at 48 weeks): 0.578 | Estimated cumulative rate of conversion to DMS (dissemination of MRI lesions in time or confirmed relapse) ([2]; 14 mg once daily, at 108 weeks): 71.5% | Kaplan-Meier estimates of probability of conversion to DMS (95% CI) ([2]; 14 mg once daily, at 108 weeks): 0.715 | Reduction of the risk of conversion to DMS (dissemination of MRI lesions in time or a relapse) compared to placebo ([2]; 14 mg once daily, p=0.0003): 34.9% | Adjusted annualized relapse rate, Relative risk (95% CI) ([3]; 7 mg once daily vs placebo, P-value 0.0541): 0.669 | Adjusted annualized relapse rate, Risk difference (95% CI) ([3]; 7 mg once daily vs placebo, P-value 0.0576): −0.094 | Unadjusted annualized relapses rate ([3]; 7 mg once daily): 0.209 | Number of patients with ≧1 relapses: Yes ([3]; 7 mg once daily, ITT (N = 203)): 42 (20.7%) | Total number of relapses ([3]; 7 mg once daily, 258.5 patient-years followed): 54 | Number of patients with ≧1 relapses: No ([3]; 7 mg once daily): 161 (79.3%) | Number of relapses: 0 (patients) ([3]; 7 mg once daily): 161 (79.3%) | Number of relapses: 1 (patients) ([3]; 7 mg once daily): 33 (16.3%) | Number of relapses: 2 (patients) ([3]; 7 mg once daily): 7 (3.4%) | Number of relapses: >=3 (patients) ([3]; 7 mg once daily): 2 (1.0%) | Risk reduction of on-treatment adjusted ARR relative to placebo ([3]; 7 mg once daily, p=0.0541): 33.1% | Adjusted annualized relapse rate, Relative risk (95% CI) ([3]; 14 mg once daily vs placebo, P-value 0.0579): 0.681 | Adjusted annualized relapse rate, Risk difference (95% CI) ([3]; 14 mg once daily vs placebo, P-value 0.0628): −0.091 | Unadjusted annualized relapses rate ([3]; 14 mg once daily): 0.208 | Number of patients with ≧1 relapses: Yes [3, 5]: 45 (21.0%) | Total number of relapses ([3]; 14 mg once daily, 288.9 patient-years followed): 60 | Number of patients with ≧1 relapses: No ([3]; 14 mg once daily): 169 (79.0%) | Number of relapses: 0 (patients) ([3]; 14 mg once daily): 169 (79.0%) | Number of relapses: 1 (patients) ([3]; 14 mg once daily): 33 (15.4%) | Number of relapses: 2 (patients) ([3]; 14 mg once daily): 10 (4.7%) | Number of relapses: >=3 (patients) ([3]; 14 mg once daily): 2 (0.9%) | Risk reduction of on-treatment adjusted ARR relative to placebo ([3]; 14 mg once daily, p=0.0579): 31.9% | Study treatment discontinuation: Adverse event (number of patients) [4, 6]: 25 | Study treatment discontinuation: Death (number of patients) [4, 6]: 0 | Study treatment discontinuation: Lack of efficacy [4, 6]: (2.9%) | Study treatment discontinuation: Lack of efficacy (number of patients) [4, 6]: 6 | Study treatment discontinuation: Progressive Disease [4, 6]: (0.5%) | Study treatment discontinuation: Progressive Disease (number of patients) [4, 6]: 1 | Study treatment discontinuation: Adverse event (number of patients) [4, 7]: 18 | Study treatment discontinuation: Death (number of patients) [4, 7]: 0 | Study treatment discontinuation: Lack of efficacy [4, 7]: (5.6%) | Study treatment discontinuation: Lack of efficacy (number of patients) [4, 7]: 12 | Study treatment discontinuation: Progressive Disease (number of patients) [4, 7]: 0 | Tolerability / safety profile ([4]; both doses (7 mg and 14 mg once daily)): well tolerated with a manageable safety profile
